Results as given in ChEMBL document CHEMBL6103672, “Discovery of HMPL-306 (Ranosidenib), a New Potent and Selective Dual Inhibitor of Mutant IDH1 and 2 in Clinical Development for Cancer Treatment” (ACS Med Chem Lett, 2025).

Tests used:
[1] = Apparent permeability across apical to basolateral side in human Caco-2 cells at 10 uM incubated for 1 hrs by LC-MS/MS analysis
[2] = AUC(0 to t) in male ICR mouse at 10 mg/kg, po measured after 8 hrs by LC/MS/MS analysis; assay type: ADME, organism-based; conditions: in vivo
[3] = Inhibition of IDH1 R132H mutant in human U-87 MG cells incubated for 72 hrs by measuring 2-HG production by fluorescence based analysis; assay type: functional, cell-based, U-87MG ATCC; conditions: Homo sapiens, U-87 MG, 72 h
[4] = Metabolic stability in male SD rat liver microsomes assessed as parent compound remaining at 1 uM measured after 30 mins in presence of NADPH by LC-MS analysis; assay type: ADME, Microsome; conditions: Sprague-Dawley, read-out: Stability
[5] = Oral bioavailability in male ICR mouse at 10 mg/kg measured after 8 hrs by LC/MS/MS analysis; assay type: ADME, organism-based; conditions: in vivo
[6] = AUC(0 to infinity) in male ICR mouse at 10 mg/kg, po measured after 8 hrs by LC/MS/MS analysis; assay type: ADME, organism-based; conditions: in vivo
[7] = Inhibition of IDH2 R140Q mutant in human U-87 MG cells incubated for 72 hrs by measuring 2-HG production by fluorescence based analysis; assay type: functional, cell-based, U-87MG ATCC; conditions: Homo sapiens, U-87 MG, 72 h
[8] = Cmax in male ICR mouse at 10 mg/kg, po measured after 8 hrs by LC/MS/MS analysis; assay type: ADME, organism-based; conditions: in vivo
[9] = Volume of distribution at steady state in male ICR mouse at 2.5 mg/kg, iv measured after 8 hrs by LC/MS/MS analysis; assay type: ADME, organism-based; conditions: in vivo, read-out: Vdss
[10] = Metabolic stability in male ICR mouse liver microsomes assessed as parent compound remaining at 1 uM measured after 30 mins in presence of NADPH by LC-MS analysis; assay type: ADME, Microsome; conditions: read-out: Stability
[11] = Apparent permeability across basolateral to apical side in human Caco-2 cells at 10 uM incubated for 1 hrs by LC-MS/MS analysis
[12] = Half life in male ICR mouse at 10 mg/kg, po measured after 8 hrs by LC/MS/MS analysis; assay type: ADME, organism-based; conditions: in vivo
[13] = Clearance in male ICR mouse at 2.5 mg/kg, iv measured after 8 hrs by LC/MS/MS analysis; assay type: ADME, organism-based; conditions: in vivo
[14] = In vivo inhibition of 2-HG in BALB/c nude mouse xenografted with human U-87 MG cells harboring IDH2 R140Q mutant at 25 mg/kg, po measured after 24 hrs post dose; assay type: functional
UGT1A1 = molecular target: T1, UGT1A1 (Homo sapiens, UniProt P22309); assay: Inhibition of UGT1A1 (unknown origin) at 10 uM relative to control; assay type: ADME
T1 sequence (P22309 whole entry): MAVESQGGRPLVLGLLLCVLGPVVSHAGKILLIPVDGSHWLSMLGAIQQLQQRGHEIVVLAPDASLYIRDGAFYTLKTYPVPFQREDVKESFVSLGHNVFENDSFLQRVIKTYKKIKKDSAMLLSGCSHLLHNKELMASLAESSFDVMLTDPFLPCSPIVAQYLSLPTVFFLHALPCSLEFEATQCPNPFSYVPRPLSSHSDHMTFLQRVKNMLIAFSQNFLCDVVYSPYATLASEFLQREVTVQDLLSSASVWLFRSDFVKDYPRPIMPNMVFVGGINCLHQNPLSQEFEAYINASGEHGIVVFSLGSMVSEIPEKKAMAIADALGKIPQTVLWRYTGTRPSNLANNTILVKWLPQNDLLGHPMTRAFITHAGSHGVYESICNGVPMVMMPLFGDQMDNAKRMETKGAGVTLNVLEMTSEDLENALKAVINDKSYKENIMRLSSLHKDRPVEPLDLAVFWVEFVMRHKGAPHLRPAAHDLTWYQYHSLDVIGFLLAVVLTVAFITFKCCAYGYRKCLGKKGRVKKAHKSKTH

[15] = molecular target: Isocitrate dehydrogenase [NADP], mitochondrial (Homo sapiens, UniProt P48735, R140Q); assay: Inhibition of IDH2 R140Q mutant (unknown origin) using alpha-ketoglutarate as substrate preincubated with compound for 16 hrs followed by substrate addition and measured after 1 hr in presence of NADPH by fluorescence based analysis
Sequence of Isocitrate dehydrogenase [NADP], mitochondrial (P48735 40-452 R140Q limits assumed): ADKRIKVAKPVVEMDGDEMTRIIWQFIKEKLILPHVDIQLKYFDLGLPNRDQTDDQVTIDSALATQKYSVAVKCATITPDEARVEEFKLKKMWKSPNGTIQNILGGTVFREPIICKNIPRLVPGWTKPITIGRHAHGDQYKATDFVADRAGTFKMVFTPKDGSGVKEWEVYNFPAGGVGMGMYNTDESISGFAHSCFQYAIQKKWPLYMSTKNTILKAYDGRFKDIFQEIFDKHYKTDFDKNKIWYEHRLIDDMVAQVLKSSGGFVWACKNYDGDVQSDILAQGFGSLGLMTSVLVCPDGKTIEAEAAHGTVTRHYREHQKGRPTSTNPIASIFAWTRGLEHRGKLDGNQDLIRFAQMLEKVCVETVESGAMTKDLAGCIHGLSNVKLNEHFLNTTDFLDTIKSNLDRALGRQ

[16] = AUC(0 to t) in male ICR mouse at 10 mg/kg, po measured upto 24 hrs by LC/MS/MS analysis; assay type: ADME, organism-based; conditions: in vivo
Adenosine receptor A3 = molecular target: T2, Adenosine receptor A3 (Homo sapiens, UniProt P0DMS8); assay: Inhibition of adenosine A3 receptor (unknown origin); assay type: toxicity
T2 sequence (P0DMS8 whole entry): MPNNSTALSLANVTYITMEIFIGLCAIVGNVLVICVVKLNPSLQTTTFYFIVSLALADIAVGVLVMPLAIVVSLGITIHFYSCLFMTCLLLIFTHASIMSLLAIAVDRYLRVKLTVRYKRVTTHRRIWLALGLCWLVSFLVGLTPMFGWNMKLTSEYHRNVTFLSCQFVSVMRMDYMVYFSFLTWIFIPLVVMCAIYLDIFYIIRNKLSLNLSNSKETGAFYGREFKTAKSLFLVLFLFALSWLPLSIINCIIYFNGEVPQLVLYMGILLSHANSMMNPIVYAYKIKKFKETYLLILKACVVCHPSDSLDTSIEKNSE

[17] = In vivo inhibition of 2-HG in BALB/c nude mouse xenografted with human U-87 MG cells harboring IDH2 R140Q mutant at 25 mg/kg, po measured after 40 hrs post dose; assay type: functional
[18] = Inhibition of IDH2 R140Q mutant in human TF-1 cells incubated for 72 hrs by measuring 2-HG production by fluorescence based analysis; assay type: functional, cell-based; conditions: TF-1, 72 h
[19] = Inhibition of IDH2 R172K mutant in human HEK293 cells incubated for 72 hrs by measuring 2-HG production by fluorescence based analysis; assay type: functional, cell-based; conditions: HEK293, 72 h
[20] = Inhibition of IDH1 R132C mutant in human HT-1080 cells incubated for 72 hrs by measuring 2-HG production by fluorescence based analysis; assay type: functional, cell-based; conditions: HT-1080, 72 h
[21] = In vivo inhibition of 2-HG in BALB/c nude mouse xenografted with human HT-1080 cells harboring IDH1 R132C mutant at 50 mg/kg, po measured after 40 hrs post dose; assay type: functional
[22] = Inhibition of IDH1 R132H mutant in human TF-1 cells incubated for 72 hrs by measuring 2-HG production by fluorescence based analysis; assay type: functional, cell-based; conditions: TF-1, 72 h
[23] = In vivo inhibition of 2-HG in BALB/c nude mouse xenografted with human HT-1080 cells harboring IDH1 R132C mutant at 50 mg/kg, po measured after 24 hrs post dose; assay type: functional
[24] = Ratio of drug concentration in brain to plasma of BALB/c nude mouse xenografted with human U-87 MG cells harboring IDH2 R140Q mutant at 50 mg/kg measured after 24 hrs by LC/MS/MS analysis; assay type: ADME, organism-based; conditions: read-out: BPR
[25] = Ratio of drug concentration in brain to plasma of BALB/c nude mouse xenografted with human U-87 MG cells harboring IDH2 R140Q mutant at 50 mg/kg measured after 16 hrs by LC/MS/MS analysis; assay type: ADME, organism-based; conditions: read-out: BPR

IC50 [3] | bioavailability [5] | AUC(0-inf) [6] | IC50 [7] | Cmax [8] | Vd [9] | half-life [12] | clearance [13] | AUC(0-t) at 24 h [16] | Structure (SMILES) | further results
0.1 µM | 134% | 15800 ng·h/mL | 0.042 µM | 4950 ng/mL | 1.16 L/kg | 2 h | 14.1 mL/min/kg |  | C[C@@H](Nc1nc(N[C@H](C)C(F)(F)F)nc(C2=C(F)[C@@H](O)CCC2)n1)C(F)(F)F | Papp A→B at 1 h, 10 µM [1]: 46.8 ×10⁻⁶ cm/s; AUC(0-t) at 8 h [2]: 14800 ng·h/mL; remaining at 0.5 h, 1 µM [4]: 92.7%; remaining at 0.5 h, 1 µM [10]: 86.2%; Papp B→A at 1 h, 10 µM [11]: 25.9 ×10⁻⁶ cm/s
 | 95.1% | 23000 ng·h/mL | 0.043 µM | 1870 ng/mL | 1.72 L/kg | 3.3 h | 6.9 mL/min/kg | 22900 ng·h/mL | CC(C)(O)CNc1nc(Nc2ccnc(C(F)(F)F)c2)nc(-c2cccc(C(F)(F)F)n2)n1 [ENASIDENIB] | inhibition (INH) [14]: 87%; inhibition at 10 µM (UGT1A1): 76.1%; IC50 [15]: 0.037 µM; IC50 (Adenosine receptor A3): 0.012 µM; inhibition (INH) [17]: 37%; IC50 [18]: 0.055 µM; IC50 [19]: 5.17 µM
0.032 µM | 64.5% | 7100 ng·h/mL |  | 1270 ng/mL | 1.94 L/kg | 2.6 h | 15.2 mL/min/kg | 7090 ng·h/mL | N#Cc1ccnc(N2C(=O)CC[C@H]2C(=O)N(c2cncc(F)c2)[C@H](C(=O)NC2CC(F)(F)C2)c2ccccc2Cl)c1 [IVOSIDENIB] | IC50 [20]: 0.009 µM; inhibition in vivo at 50 mg/kg [21]: 50%; IC50 [22]: 0.068 µM; inhibition in vivo at 50 mg/kg [23]: 78%
 |  |  |  |  |  |  |  |  | C[C@@H](Nc1nc(N[C@H](C)C(F)(F)F)nc(-c2cccc(Cl)n2)n1)C(F)(F)F [VORASIDENIB] | Kp at 24 h [24]: 1.2; Kp at 16 h [25]: 1.4
